Measured values published in the NIST ThermoML archive (doi:10.1016/j.jct.2011.08.016).
± gives the expanded uncertainty stated by the source.

Experiment: xn = mol fraction of the nth substance listed
Settings: Liquid, Vibrating tube method

## CCCCCCCCCC [decane] + CCCCCCCC
363.03 K, 7000 kPa, x2 = 0.0616
  mass density: 682.5 ± 0.45 kg/m3
363.03 K, 8000 kPa, x2 = 0.0616
  mass density: 683.6 ± 0.45 kg/m3
363.03 K, 9000 kPa, x2 = 0.0616
  mass density: 684.68 ± 0.46 kg/m3
363.03 K, 10000 kPa, x2 = 0.0616
  mass density: 685.7 ± 0.46 kg/m3
363.03 K, 10990 kPa, x2 = 0.0616
  mass density: 686.75 ± 0.47 kg/m3
363.03 K, 12000 kPa, x2 = 0.0616
  mass density: 687.8 ± 0.47 kg/m3
363.03 K, 13000 kPa, x2 = 0.0616
  mass density: 688.75 ± 0.48 kg/m3
363.03 K, 14000 kPa, x2 = 0.0616
  mass density: 689.77 ± 0.49 kg/m3
363.03 K, 15000 kPa, x2 = 0.0616
  mass density: 690.77 ± 0.49 kg/m3
363.03 K, 16000 kPa, x2 = 0.0616
  mass density: 691.73 ± 0.5 kg/m3
363.03 K, 17000 kPa, x2 = 0.0616
  mass density: 692.68 ± 0.51 kg/m3
363.03 K, 18000 kPa, x2 = 0.0616
  mass density: 693.63 ± 0.51 kg/m3
363.03 K, 19000 kPa, x2 = 0.0616
  mass density: 694.55 ± 0.52 kg/m3
363.03 K, 20000 kPa, x2 = 0.0616
  mass density: 695.46 ± 0.53 kg/m3
363.03 K, 21000 kPa, x2 = 0.0616
  mass density: 696.37 ± 0.53 kg/m3
363.03 K, 22000 kPa, x2 = 0.0616
  mass density: 697.23 ± 0.54 kg/m3
363.03 K, 23000 kPa, x2 = 0.0616
  mass density: 698.12 ± 0.55 kg/m3
363.03 K, 24000 kPa, x2 = 0.0616
  mass density: 699 ± 0.55 kg/m3
363.03 K, 25000 kPa, x2 = 0.0616
  mass density: 699.81 ± 0.56 kg/m3
363.05 K, 1000 kPa, x2 = 0.2801
  mass density: 670.18 ± 0.42 kg/m3
363.05 K, 2000 kPa, x2 = 0.2801
  mass density: 671.39 ± 0.42 kg/m3
363.05 K, 3000 kPa, x2 = 0.2801
  mass density: 672.48 ± 0.43 kg/m3
363.05 K, 4000 kPa, x2 = 0.2801
  mass density: 673.67 ± 0.43 kg/m3
363.05 K, 5000 kPa, x2 = 0.2801
  mass density: 674.81 ± 0.44 kg/m3
363.05 K, 6000 kPa, x2 = 0.2801
  mass density: 675.97 ± 0.44 kg/m3
363.05 K, 7000 kPa, x2 = 0.2801
  mass density: 677.07 ± 0.45 kg/m3
363.05 K, 8000 kPa, x2 = 0.2801
  mass density: 678.19 ± 0.45 kg/m3
363.05 K, 9000 kPa, x2 = 0.2801
  mass density: 679.28 ± 0.46 kg/m3
363.05 K, 10000 kPa, x2 = 0.2801
  mass density: 680.35 ± 0.47 kg/m3
363.05 K, 10990 kPa, x2 = 0.2801
  mass density: 681.42 ± 0.47 kg/m3
363.05 K, 12000 kPa, x2 = 0.2801
  mass density: 682.49 ± 0.48 kg/m3
363.05 K, 13000 kPa, x2 = 0.2801
  mass density: 683.53 ± 0.48 kg/m3
363.05 K, 14000 kPa, x2 = 0.2801
  mass density: 684.56 ± 0.49 kg/m3
363.05 K, 15000 kPa, x2 = 0.2801
  mass density: 685.57 ± 0.5 kg/m3
363.05 K, 16000 kPa, x2 = 0.2801
  mass density: 686.57 ± 0.5 kg/m3
363.05 K, 17000 kPa, x2 = 0.2801
  mass density: 687.56 ± 0.51 kg/m3
363.05 K, 18000 kPa, x2 = 0.2801
  mass density: 688.51 ± 0.52 kg/m3
363.05 K, 19000 kPa, x2 = 0.2801
  mass density: 689.47 ± 0.52 kg/m3
363.05 K, 20000 kPa, x2 = 0.2801
  mass density: 690.38 ± 0.53 kg/m3
363.05 K, 21000 kPa, x2 = 0.2801
  mass density: 691.33 ± 0.54 kg/m3
363.05 K, 22000 kPa, x2 = 0.2801
  mass density: 692.19 ± 0.54 kg/m3
363.05 K, 23000 kPa, x2 = 0.2801
  mass density: 693.06 ± 0.55 kg/m3
363.05 K, 24000 kPa, x2 = 0.2801
  mass density: 693.94 ± 0.56 kg/m3
363.05 K, 25000 kPa, x2 = 0.2801
  mass density: 694.78 ± 0.57 kg/m3
363.07 K, 1000 kPa, x2 = 0.7736
  mass density: 654.79 ± 0.42 kg/m3
363.07 K, 1000 kPa, x2 = 0.9623
  mass density: 647.67 ± 0.43 kg/m3
363.07 K, 2000 kPa, x2 = 0.7736
  mass density: 656.13 ± 0.43 kg/m3
363.07 K, 2000 kPa, x2 = 0.9623
  mass density: 649.03 ± 0.43 kg/m3
363.07 K, 3000 kPa, x2 = 0.7736
  mass density: 657.39 ± 0.43 kg/m3
363.07 K, 3000 kPa, x2 = 0.9623
  mass density: 650.38 ± 0.44 kg/m3
363.07 K, 4000 kPa, x2 = 0.7736
  mass density: 658.68 ± 0.44 kg/m3
363.07 K, 4000 kPa, x2 = 0.9623
  mass density: 651.7 ± 0.44 kg/m3
363.07 K, 5000 kPa, x2 = 0.7736
  mass density: 659.92 ± 0.45 kg/m3
363.07 K, 5000 kPa, x2 = 0.9623
  mass density: 652.98 ± 0.45 kg/m3
363.07 K, 6000 kPa, x2 = 0.7736
  mass density: 661.18 ± 0.45 kg/m3
363.07 K, 6000 kPa, x2 = 0.9623
  mass density: 654.25 ± 0.45 kg/m3
363.07 K, 7000 kPa, x2 = 0.7736
  mass density: 662.38 ± 0.46 kg/m3
363.07 K, 7000 kPa, x2 = 0.9623
  mass density: 655.52 ± 0.46 kg/m3
363.07 K, 8000 kPa, x2 = 0.7736
  mass density: 663.57 ± 0.46 kg/m3
363.07 K, 8000 kPa, x2 = 0.9623
  mass density: 656.76 ± 0.47 kg/m3
363.07 K, 9000 kPa, x2 = 0.7736
  mass density: 664.75 ± 0.47 kg/m3
363.07 K, 9000 kPa, x2 = 0.9623
  mass density: 658 ± 0.47 kg/m3
363.07 K, 10000 kPa, x2 = 0.7736
  mass density: 665.92 ± 0.48 kg/m3
363.07 K, 10000 kPa, x2 = 0.9623
  mass density: 659.23 ± 0.48 kg/m3
363.07 K, 10990 kPa, x2 = 0.7736
  mass density: 667.06 ± 0.48 kg/m3
363.07 K, 10990 kPa, x2 = 0.9623
  mass density: 660.42 ± 0.49 kg/m3
363.07 K, 12000 kPa, x2 = 0.7736
  mass density: 668.19 ± 0.49 kg/m3
363.07 K, 12000 kPa, x2 = 0.9623
  mass density: 661.58 ± 0.49 kg/m3
363.07 K, 13000 kPa, x2 = 0.7736
  mass density: 669.32 ± 0.5 kg/m3
363.07 K, 13000 kPa, x2 = 0.9623
  mass density: 662.75 ± 0.5 kg/m3
363.07 K, 14000 kPa, x2 = 0.7736
  mass density: 670.41 ± 0.5 kg/m3
363.07 K, 14000 kPa, x2 = 0.9623
  mass density: 663.87 ± 0.51 kg/m3
363.07 K, 15000 kPa, x2 = 0.7736
  mass density: 671.49 ± 0.51 kg/m3
363.07 K, 15000 kPa, x2 = 0.9623
  mass density: 664.99 ± 0.51 kg/m3
363.07 K, 16000 kPa, x2 = 0.7736
  mass density: 672.56 ± 0.52 kg/m3
363.07 K, 16000 kPa, x2 = 0.9623
  mass density: 666.07 ± 0.52 kg/m3
363.07 K, 17000 kPa, x2 = 0.7736
  mass density: 673.6 ± 0.52 kg/m3
363.07 K, 17000 kPa, x2 = 0.9623
  mass density: 667.17 ± 0.53 kg/m3
363.07 K, 18000 kPa, x2 = 0.7736
  mass density: 674.63 ± 0.53 kg/m3
363.07 K, 18000 kPa, x2 = 0.9623
  mass density: 668.2 ± 0.54 kg/m3
363.07 K, 19000 kPa, x2 = 0.7736
  mass density: 675.61 ± 0.54 kg/m3
363.07 K, 19000 kPa, x2 = 0.9623
  mass density: 669.26 ± 0.54 kg/m3
363.07 K, 20000 kPa, x2 = 0.7736
  mass density: 676.63 ± 0.55 kg/m3
363.07 K, 20000 kPa, x2 = 0.9623
  mass density: 670.29 ± 0.55 kg/m3
363.07 K, 21000 kPa, x2 = 0.7736
  mass density: 677.57 ± 0.55 kg/m3
363.07 K, 21000 kPa, x2 = 0.9623
  mass density: 671.3 ± 0.56 kg/m3
363.07 K, 22000 kPa, x2 = 0.7736
  mass density: 678.47 ± 0.56 kg/m3
363.07 K, 22000 kPa, x2 = 0.9623
  mass density: 672.27 ± 0.57 kg/m3
363.07 K, 23000 kPa, x2 = 0.7736
  mass density: 679.43 ± 0.57 kg/m3
363.07 K, 23000 kPa, x2 = 0.9623
  mass density: 673.14 ± 0.58 kg/m3
363.07 K, 24000 kPa, x2 = 0.7736
  mass density: 680.34 ± 0.58 kg/m3
363.07 K, 24000 kPa, x2 = 0.9623
  mass density: 674.08 ± 0.58 kg/m3
363.07 K, 25000 kPa, x2 = 0.7736
  mass density: 681.28 ± 0.58 kg/m3
363.07 K, 25000 kPa, x2 = 0.9623
  mass density: 674.98 ± 0.59 kg/m3
